Results: patent US5935829A, “Mutation assays involving blood cells that metabolize toxic substances” (priority 1992, dated 1999)
Read-outs that look alike come from different tables or passages of the source.

Assays:
AHH-1 cells [1] = tested on: AHH-1 cells
in vitro = details: human, ahh-1 cells, RELATIVE SURVIVAL; for viability at 48 h, 5000 µM: 5 mM × 48 hours; for viability at 48 h, 14000 µM: 14 mM × 48 hours; for viability at 48 h, 28000 µM: 28 mM × 48 hours; for viability at 48 h, 300 µM: 300 μM × 48 hours; for viability at 48 h, 25 µM: 25 μM × 48 hours
[2] = tested on: 6-TG resistant AHH-1 clones; assay: Plating efficiency of clones resistant to 6-TG; assay type: cell-based, human; details: for Plating Efficiency with 6-TG & 2000 c/w: with 2000 wild type cells per well
wild type AHH-1 cells = assay: Plating efficiency of wild type cells with 6-TG; assay type: cell-based, human
AHH-1 cells [3] = assay: Cell clumping at concentrations of 6-TG in microtiter wells; assay type: cell-based, human
Procedure: When applied at relatively high concentrations to a colony of cells, 6-thioguanine (6-TG) causes the cells to clump together, rendering it difficult or impossible for live mutant cells to survive and create colonies. […] […]. Subsequent routine work was done using 0.5 μg/ml of 6-TG.

[4] = tested on: 6-TG resistant AHH-1 cells
[5] = tested on: AHH activity of AHH-1 cells; assay type: cell-based, human
Procedure: The quantity of 3-hydroxy BaP was measured by fluorescent intensity activated by a light wavelength of 396 nm and measured at 522 nm using a spectrofluorimeter (Farrand Model Mk-1, Valhalla, N.Y.).
After growth of the cells in culture medium with gentamycin and kanamycin, the cells were plated in microtiter plates at a density of about 0.2 cells per well. Colonies were isolated and characterized for BaP-induced growth inhibition. A total of 47 colonies were isolated and contacted with 40 uM BaP. In its normal state, BaP is not highly cytotoxic or mutagenic; however, if metabolized by oxidative activity into one or more epoxides or phenols, the metabolites tend to be toxic and mutagenic.
6-TG resistant clones were characterized for AHH activity by measuring the rate of production of 3-OH benzopyrene, a fluorescent metabolite of BaP which is created by AHH activity.

[6] = 10 μM × 48 hours, induction BNF
[7] = 100 μM × 48 hours, induction BNF
[8] = 100 μM × 48 hours, induction none
[9] = 600 μM × 48 hours, induction none
[10] = 25 μM × 48 hours, induction none
[11] = 50 μM × 48 hours, induction none
[12] = 75 μM × 48 hours, induction none
[13] = 1 μM × 48 hours, induction CEPE
[14] = 3 μM × 48 hours, induction CEPE
[15] = 10 μM × 48 hours, induction CEPE
[16] = 25 μM × 4.8 hours, induction CEPE
[17] = 50 μM × 48 hours, induction CEPE & BNF
[18] = 50 μM × 48 hours, induction BNF

In the case of `CN(C)N=O` [DMN, dimethylnitrosamine], the “MUTANT FRACTION × 10^6, MEAN ± STD.DEV.” value (AHH-1 cells [1]; 5 mM × 48 hours, induction BNF) is reported as 4.0 ± 0.7 × 10^6, the “MUTANT FRACTION × 10^6, MEAN ± STD.DEV.” value (AHH-1 cells [1]; 5 mM × 48 hours, induction none) is reported as 3.5 ± 0.7 × 10^6 and the “MUTANT FRACTION × 10^6, MEAN ± STD.DEV.” value (AHH-1 cells [1]; 14 mM × 48 hours, induction BNF) is reported as 8.0 ± 2.0 × 10^6. The “MUTANT FRACTION × 10^6, MEAN ± STD.DEV.” value (AHH-1 cells [1]; 14 mM × 48 hours, induction none) was 3.5 ± 0.7 × 10^6, the “MUTANT FRACTION × 10^6, MEAN ± STD.DEV.” value (AHH-1 cells [1]; 28 mM × 48 hours, induction BNF) was 8.6 ± 2.1 × 10^6 and the “MUTANT FRACTION × 10^6, MEAN ± STD.DEV.” value (AHH-1 cells [1]; 28 mM × 48 hours, induction none) was 4.1 ± 1.3 × 10^6. For the same compound, the viability at 48 h, 5000 µM (in vitro; induction BNF) was 112%, the viability at 48 h, 5000 µM (in vitro; induction none) was 98% and the viability at 48 h, 14000 µM (in vitro; induction BNF) was 100%. It also gave a viability at 48 h, 14000 µM (in vitro; induction none) of 92%, a viability at 48 h, 28000 µM (in vitro; induction BNF) of 87% and a viability at 48 h, 28000 µM (in vitro; induction none) of 81%.
With `C/C=C(/C)C(=O)O[C@H]1CCN2CC=C(COC(=O)[C@@](O)([C@H](C)OC)C(C)(C)O)[C@H]12` [LSCP, lasiocarpine] the “MUTANT FRACTION × 10^6, MEAN ± STD.DEV.” value (AHH-1 cells [1]; [6]) was 3.9 ± 1 × 10^6, the “MUTANT FRACTION × 10^6, MEAN ± STD.DEV.” value (AHH-1 cells [1]; [7]) was 4.3 ± 1 × 10^6 and the “MUTANT FRACTION × 10^6, MEAN ± STD.DEV.” value (AHH-1 cells [1]; [8]) was 5.4 ± 0.6 × 10^6. The “MUTANT FRACTION × 10^6, MEAN ± STD.DEV.” value (AHH-1 cells [1]; 300 μM × 48 hours, induction BNF) was 12.7 ± 2.1 × 10^6, the “MUTANT FRACTION × 10^6, MEAN ± STD.DEV.” value (AHH-1 cells [1]; 300 μM × 48 hours, induction none) was 6.2 ± 1.3 × 10^6 and the “MUTANT FRACTION × 10^6, MEAN ± STD.DEV.” value (AHH-1 cells [1]; [9]) was 6.0 ± 1.4 × 10^6. The viability at 48 h, 10 µM (in vitro; [6]) was 103%, the viability at 48 h, 100 µM (in vitro; [7]) was 91% and the viability at 48 h, 100 µM (in vitro; [8]) was 130%. For the same compound, the viability at 48 h, 300 µM (in vitro; induction BNF) was 81%, the viability at 48 h, 300 µM (in vitro; induction none) was 89% and the viability at 48 h, 600 µM (in vitro; [9]) was 82%.
For `c1ccc2c(c1)-c1cccc3cccc-2c13` [Fla, fluoranthene], the “RELATIVE SURVIVAL” value (AHH-1 cells [1]; human, ahh-1 cells, 48 h, 40 µM) was 0.70, the viability at 48 h, 10 µM (in vitro) was 105% and the viability at 48 h, 20 µM (in vitro) was 93%. It also gave a viability at 48 h, 40 µM (in vitro) of 75%, a viability at 48 h, 50 µM (in vitro) of 67% and a viability at 48 h, 100 µM (in vitro) of 45%.
With `CCOS(C)(=O)=O` [EMS, ethyl methanesulfonate] the “MUTANT FRACTION × 10^6, MEAN ± STD.DEV.” value (AHH-1 cells [1]; 59 μM × 24 hours) was 6.3 ± 1.3 × 10^6, the “MUTANT FRACTION × 10^6, MEAN ± STD.DEV.” value (AHH-1 cells [1]; 100 μM × 24 hours) was 20 ± 5 × 10^6 and the viability at 24 h, 59 µM (in vitro; 59 μM × 24 hours) was 48%. The viability at 24 h, 100 µM (in vitro; 100 μM × 24 hours) was 36%.
With `Nc1nc2nc[nH]c2c(=S)[nH]1` [6-TG, 6-thioguanine] the “Plating Efficiency in 5 μg/ml 6-TG at 2 cells/well” value ([2]; clone BP-3) was 0.24, the “Plating Efficiency with 6-TG & 2000 c/w” value ([2]; clone BP-3) was 0.23 and the “Plating Efficiency in 5 μg/ml 6-TG at 2 cells/well” value ([2]; clone BP-4) was 0.34. For the same compound, the “Plating Efficiency with 6-TG & 2000 c/w” value ([2]; clone BP-4) was 0.34, the “Plating Efficiency in 5 μg/ml 6-TG at 2 cells/well” value ([2]; clone BP-5) was 0.21 and the “Plating Efficiency with 6-TG & 2000 c/w” value ([2]; clone BP-5) was 0.20. The “Plating Efficiency in 5 μg/ml 6-TG at 2 cells/well” value ([2]; clone BP-6) was 0.26, the “Plating Efficiency with 6-TG & 2000 c/w” value ([2]; clone BP-6) was 0.34 and the “Plating Efficiency in 5 μg/ml 6-TG at 2 cells/well” value ([2]; clone BP-7) was 0.06. For the same compound, the “Plating Efficiency with 6-TG & 2000 c/w” value ([2]; clone BP-7) was 0.07, the “Plating Efficiency in 5 μg/ml 6-TG at 2 cells/well” value (wild type AHH-1 cells) was < 10^-3 and the “Plating Efficiency with 6-TG & 2000 c/w” value (wild type AHH-1 cells; 2000 c/w) was 10^-5. The “cells per microtiter well that could be assayed” value (AHH-1 cells [3]; 0.5 μg/ml 6-TG) was ≥ 20,000 cells per microtiter well, the “cells per microtiter well that could be assayed without clumping” value (AHH-1 cells [3]; 5 μg/ml 6-TG) was “about 2,000 cells per microtiter well” and the “sensitivity to toxic effects of 6-TG” value ([4]; 6-TG resistant mutant AHH-1 population, up to 5 μg/ml, about two cells per well) was “not sensitive”. The “growth rates with and without 6-TG” value ([4]; seven 6-TG resistant clones) was “comparable growth rates”.
In the case of `CC(=O)Nc1ccc2c(c1)Cc1ccccc1-2` [2AAF, 2-acetoaminofluorene], the “MUTANT FRACTION × 10^6, MEAN ± STD.DEV.” value (AHH-1 cells [1]; [10]) is reported as 4.8 ± 1.2 × 10^6, the “MUTANT FRACTION × 10^6, MEAN ± STD.DEV.” value (AHH-1 cells [1]; [11]) is reported as 3.8 ± 1.1 × 10^6 and the “MUTANT FRACTION × 10^6, MEAN ± STD.DEV.” value (AHH-1 cells [1]; [12]) is reported as 6.9 ± 1.7 × 10^6. For the same compound, the “MUTANT FRACTION × 10^6, MEAN ± STD.DEV.” value (AHH-1 cells [1]; [8]) was 7.7 ± 0.7 × 10^6, the viability at 48 h, 25 µM (in vitro; induction none) was 73% and the viability at 48 h, 50 µM (in vitro; [11]) was 50%. For the same compound, the viability at 48 h, 75 µM (in vitro; [12]) was 37% and the viability at 48 h, 100 µM (in vitro; [8]) was 33%.
In the case of `C1=Cc2cc3cccc4ccc5ccc1c2c5c43` [CEPE, cyclopenteno(c,d)pyrene], the “induction of AHH activity” value [5] is reported as “inducers”, the “MUTANT FRACTION × 10^6, MEAN ± STD.DEV.” value (AHH-1 cells [1]; [13]) is reported as 71 ± 6 × 10^6 and the “MUTANT FRACTION × 10^6, MEAN ± STD.DEV.” value (AHH-1 cells [1]; [14]) is reported as 78 ± 9 × 10^6. The “MUTANT FRACTION × 10^6, MEAN ± STD.DEV.” value (AHH-1 cells [1]; [15]) was 22 ± 2 × 10^6, the “MUTANT FRACTION × 10^6, MEAN ± STD.DEV.” value (AHH-1 cells [1]; [16]) was 34 ± 4 × 10^6 and the “MUTANT FRACTION × 10^6, MEAN ± STD.DEV.” value (AHH-1 cells [1]; 25 μM × 48 hours, induction CEPE & BNF) was 74 ± 7 × 10^6. The “MUTANT FRACTION × 10^6, MEAN ± STD.DEV.” value (AHH-1 cells [1]; [17]) was 64 ± 7 × 10^6, the viability at 48 h, 1 µM (in vitro; [13]) was 61% and the viability at 48 h, 3 µM (in vitro; [14]) was 63%. The viability at 48 h, 10 µM (in vitro; [15]) was 59%, the viability at 4.8 h, 25 µM (in vitro; [16]) was 54% and the viability at 48 h, 25 µM (in vitro; induction CEPE & BNF) was 34%. It also gave a viability at 48 h, 50 µM (in vitro; [17]) of 27%.
In the case of `Cc1cccc2c1ccc1ccccc12` [1MP, 1-methylphenanthrene], the “MUTANT FRACTION × 10^6, MEAN ± STD.DEV.” value (AHH-1 cells [1]; 25 μM × 48 hours, induction BNF) is reported as 3.6 ± 1.2 × 10^6, the “MUTANT FRACTION × 10^6, MEAN ± STD.DEV.” value (AHH-1 cells [1]; [10]) is reported as 4.4 ± 1.2 × 10^6 and the “MUTANT FRACTION × 10^6, MEAN ± STD.DEV.” value (AHH-1 cells [1]; [18]) is reported as 8.9 ± 1.5 × 10^6. For the same compound, the “MUTANT FRACTION × 10^6, MEAN ± STD.DEV.” value (AHH-1 cells [1]; [11]) was 4.1 ± 1.2 × 10^6, the “MUTANT FRACTION × 10^6, MEAN ± STD.DEV.” value (AHH-1 cells [1]; [7]) was 7.8 ± 1.4 × 10^6 and the “MUTANT FRACTION × 10^6, MEAN ± STD.DEV.” value (AHH-1 cells [1]; [8]) was 7.8 ± 1.1 × 10^6. For the same compound, the viability at 48 h, 25 µM (in vitro; induction BNF) was 47%, the viability at 48 h, 25 µM (in vitro; induction none) was 54% and the viability at 48 h, 50 µM (in vitro; [18]) was 35%. For the same compound, the viability at 48 h, 50 µM (in vitro; [11]) was 38%, the viability at 48 h, 100 µM (in vitro; [7]) was 29% and the viability at 48 h, 100 µM (in vitro; [8]) was 31%.
